# Experimental data published in patent US10168342B2, “Lipid probes and uses thereof” (THE SCRIPPS RESEARCH INSTITUTE, priority 2015, dated 2019).
# Experiments:
# [1] = target: T1, A-DA lipid probe targets in Neuro2a cells (Mus musculus, UniProt P22437); assay: In situ competitive SILAC profiling with A-DA probe in Neuro2a cells; assay type: cell-based; settings: Neuro2a cells, A-DA 5 μM, drug 25 μM
# T1 construct: endogenous in cells; host or cells: Neuro2a
# [2] = target: T2, A-DA lipid probe targets in Neuro2a cells (Mus musculus, UniProt P45377); assay: as above; assay type: cell-based; settings: Neuro2A cells, A-DA 5 μM, drug 25 μM
# T2 construct: endogenous in cells; host or cells: Neuro2a
# [3] = system: PGF2α-EA formation in PMA-stimulated A549 cells; assay: Oxidative metabolism of AEA in A549 cells (prostamide formation); assay type: cell-based, human; settings: MJN228, KML110 5 and 25 μM, others 25 μM, AEA 20 μM
# Experimental: The media from the PMA-stimulated cells was removed and cells were washed with DPBS (2×3 mL) before adding freshly prepared media solutions containing vehicle or compound (2 mL/plate). After incubating for 30 min at 37° C., a solution of BHT-stabilized AEA (60 μM AEA; 60 μM BHT) in the same media was added to the cells (1.0 mL/plate) and incubated for 1 h. The media from the cells was then transferred to glass vials containing MS internal standards [PGE2-EA-d4 (25 pmol)], centrifuged (1,500×g, 5 min) to remove detached cells and then loaded onto pre-equilibrated reversed phase SPE cartridges (Phenomenex, Strata-X 33 μm, 60 mg/3 mL). After washing cartridges with 5% MeOH/H2O (3 mL), prostamides were eluted with MeOH (1.0 mL) and the eluent was concentrated under a stream of N2. Concentrated samples were stored at −80° C. until the day of analysis when they were reconstituted in Mobile Phase A [100 μL, 30% CH3CN in H2O (0.1% AcOH, 5.0 mM NH4OAc)].
# Media extracts were analyzed by LC/MS/MS with LC separation performed on a Kinetex reversed phase C18 column (50×4.6 mm, 2.6 μm particle size, 100Å). Mobile phase A was composed of 30% (v/v) CH3CN in H2O and Mobile phase B was composed of 50% (v/v) CH3CN in i-PrOH. Both mobile phases also contained 0.1% AcOH and NH4OAc (5 mM) to facilitate ionization and LC separation. […]
# MS analysis of prostamides was performed on an Agilent 6460 Triple Quadrupole LC/MS System with operating conditions as follows: gas temperature (300° C.); gas flow (9 L·min^−1); nebulizer (45 psi); sheath gas temperature (300° C.); sheath gas flow (12 L·min^−1); positive and negative capillary voltage (3.5 kV). Analysis was achieved using multiple reaction monitoring with precursor to product ion transitions, optimized collision energies (CE) as listed below and prostamide quantification was achieved by normalized of analyte peaks relative to a deuterated prostamide internal standard (PGE2-EA-d4) to account for differences in extraction efficiency. […]
# [4] = target: A-DA lipid probe targets in A549 cells (Homo sapiens, UniProt P07093); assay: In situ competitive SILAC profiling with A-DA probe in (PMA-stimulated) A549 cells; settings: protein SERPINE2 (P07093); A549 cells; competitor 25 μM
# [5] = target: T3, A-DA lipid probe targets in A549 cells (Homo sapiens, UniProt P35354); assay: as above; settings: PMA-stimulated A549 cells, A-DA 5 μM, drug 25 μM
# T3 sequence (P35354 18-604): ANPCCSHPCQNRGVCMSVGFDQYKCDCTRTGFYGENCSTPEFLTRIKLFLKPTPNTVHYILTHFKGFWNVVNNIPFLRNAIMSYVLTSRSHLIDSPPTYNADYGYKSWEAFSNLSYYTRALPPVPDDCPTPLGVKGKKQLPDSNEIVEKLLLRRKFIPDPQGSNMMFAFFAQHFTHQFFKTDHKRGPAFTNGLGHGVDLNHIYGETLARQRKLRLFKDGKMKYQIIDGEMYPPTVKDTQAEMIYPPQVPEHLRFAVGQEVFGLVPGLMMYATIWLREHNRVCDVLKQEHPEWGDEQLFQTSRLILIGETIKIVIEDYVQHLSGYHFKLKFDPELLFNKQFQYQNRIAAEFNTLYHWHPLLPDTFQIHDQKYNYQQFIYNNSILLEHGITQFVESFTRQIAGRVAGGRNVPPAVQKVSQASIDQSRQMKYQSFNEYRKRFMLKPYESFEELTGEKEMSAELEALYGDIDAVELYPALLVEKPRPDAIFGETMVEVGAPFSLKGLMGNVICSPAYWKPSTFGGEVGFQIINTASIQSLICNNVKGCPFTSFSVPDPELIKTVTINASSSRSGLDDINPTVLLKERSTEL
# [6] = target: T4, A-DA lipid probe targets in A549 cells (Homo sapiens, UniProt Q9UH99); assay: as above; settings: protein SUN2 (Q9UH99); A549 cells; competitor 25 μM
# T4 sequence (Q9UH99 1-717): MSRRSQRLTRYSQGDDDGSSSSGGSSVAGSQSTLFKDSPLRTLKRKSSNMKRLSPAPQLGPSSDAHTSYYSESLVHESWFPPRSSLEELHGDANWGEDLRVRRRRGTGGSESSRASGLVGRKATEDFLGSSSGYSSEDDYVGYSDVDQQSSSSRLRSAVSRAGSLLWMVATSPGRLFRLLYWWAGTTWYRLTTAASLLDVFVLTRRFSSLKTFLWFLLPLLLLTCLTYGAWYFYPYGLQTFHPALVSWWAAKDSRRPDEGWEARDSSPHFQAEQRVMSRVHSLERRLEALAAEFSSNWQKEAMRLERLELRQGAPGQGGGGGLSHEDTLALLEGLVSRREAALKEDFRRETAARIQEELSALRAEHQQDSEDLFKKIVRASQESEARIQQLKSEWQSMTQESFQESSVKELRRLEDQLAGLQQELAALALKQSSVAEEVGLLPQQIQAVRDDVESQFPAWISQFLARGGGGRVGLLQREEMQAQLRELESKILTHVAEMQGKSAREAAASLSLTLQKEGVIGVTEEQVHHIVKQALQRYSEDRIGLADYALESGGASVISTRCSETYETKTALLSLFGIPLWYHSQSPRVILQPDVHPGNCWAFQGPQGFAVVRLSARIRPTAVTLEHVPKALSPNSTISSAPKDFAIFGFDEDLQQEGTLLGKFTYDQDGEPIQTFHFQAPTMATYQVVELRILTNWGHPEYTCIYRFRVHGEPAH
# [7] = system: membrane and soluble proteins of HEK293T cells; assay: Gel-based profiling of lipid probe labeling in HEK293T cells; assay type: cell-based, human; settings: probe 20 μM, 30 min, UV
# Experimental: For gel-based analysis, after sonicating the membrane pellets in cold DPBS, protein concentrations of each fraction were determined using the BCA protein assay (Bio-Rad) and a microplate reader (Tecan, Infinite F500).
# Proteomes were diluted to 1.0 mg/mL (total protein concentration) and 50 μL of each proteome was transferred to separate wells in a 96-well plate.
# In some instances, within the arachidonoyl subset of probes, fatty acid- and fatty acid amide-based probes (AA-DA and AEA-DA, respectively) were synthesized and their potential were evaluated to bind and covalently modify (under UV-light exposure) proteins in human cells by gel-based profiling. For example, HEK293T cells were treated with probe (AA-DA or AEA-DA; 20 μM, 30 min), irradiated with UV light (10 min, 4° C.), lysed and the cell proteomes fractionated into membrane and soluble components by centrifugation prior to conjugation to a fluorescent reporter tag (Rh—N3) using CuAAC (FIG. 4A). […] In some instances, this was a consequence of rapid sequestration of this probe into membranes through its metabolic incorporation into phospho/neutral-lipids or into lipidated proteins. […] In some instances, the labeling profile of the AEA-DA probe reflected a limited capacity of the cell to metabolize this amidated probe, which undergoes enzyme-mediated hydrolysis prior to incorporation into other lipids or proteins.
# [8] = system: sterol-binding proteins in HeLa cells; assay: Gel-based profiling of sterol-binding proteins in HeLa cells; assay type: cell-based, human; settings: 1-20 μM probe
# Experimental: HeLa cells were grown at 37° C. under a humidified 5% CO2 atmosphere, in a culture medium consisting of high-glucose DMEM (HyClone) supplemented with 10% fetal bovine serum (FBS; Gemini) and penicillin, streptomycin, and glutamine (Cellgro; PSQ). For SILAC experiments, the culture medium was replaced with SILAC DMEM (Thermo) supplemented instead with 10% dialyzed FBS, PSQ, and 100 μg/ml [^13C6, ^15N4] L-arginine-HCl and [^13C6, ^15N2] L-lysine-HCl (Sigma-Aldrich). Cells were passaged at least six times in isotopically labeled media before being utilized for analysis by LC-MS/MS.
# To facilitate delivery to cells, all sterols and steroids, including the sterol probes, were complexed in aqueous solution to mβCD (Sigma-Aldrich) for at least twelve hours before dilution in culture medium for labeling. The desired amount of sterol or steroid was added to a saturated aqueous mβCD (38 mM) solution to generate a concentrated stock, and agitated at room temperature overnight; solutions were filtered prior to use the following day. […]
# Frozen cell pellets were thawed on ice and lysed in PBS by sonication. Protein concentrations of cell lysates were determined using the BCA protein assay on a microplate reader. […] After 1 hour, samples were mixed with SDS sample loading buffer and loaded without boiling on a 10% SDS-PAGE gel, separated, and imaged using a Hitachi FMBIO-II flatbed fluorescence scanner.
# [9] = system: sterol-binding proteins in HeLa cells; assay: SILAC MS-based profiling of sterol-binding proteins in HeLa cells; assay type: cell-based, human; settings: probe-enriched proteins
# Experimental: To facilitate delivery to cells, all sterols and steroids, including the sterol probes, were complexed in aqueous solution to mβCD (Sigma-Aldrich) for at least twelve hours before dilution in culture medium for labeling. The desired amount of sterol or steroid was added to a saturated aqueous mβCD (38 mM) solution to generate a concentrated stock, and agitated at room temperature overnight; solutions were filtered prior to use the following day. Aqueous stock solutions of the trans probe were prepared at 2 mM; the cis and epi probes were prepared at 1.2 mM; cholesterol and other sterols for competition were prepared at 4 mM; steroids were prepared at 5 mM. […]
# T2 sequence (P45377 whole entry): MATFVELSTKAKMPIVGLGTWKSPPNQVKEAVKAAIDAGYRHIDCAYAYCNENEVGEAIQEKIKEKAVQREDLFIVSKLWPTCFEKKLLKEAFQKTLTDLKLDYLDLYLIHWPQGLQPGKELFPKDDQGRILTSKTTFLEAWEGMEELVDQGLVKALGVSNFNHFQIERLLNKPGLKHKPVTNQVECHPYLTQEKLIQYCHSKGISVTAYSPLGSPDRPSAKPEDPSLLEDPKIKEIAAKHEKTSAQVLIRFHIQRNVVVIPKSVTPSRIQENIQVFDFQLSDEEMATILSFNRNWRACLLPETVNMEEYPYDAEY
# T1 sequence (P22437 27-602): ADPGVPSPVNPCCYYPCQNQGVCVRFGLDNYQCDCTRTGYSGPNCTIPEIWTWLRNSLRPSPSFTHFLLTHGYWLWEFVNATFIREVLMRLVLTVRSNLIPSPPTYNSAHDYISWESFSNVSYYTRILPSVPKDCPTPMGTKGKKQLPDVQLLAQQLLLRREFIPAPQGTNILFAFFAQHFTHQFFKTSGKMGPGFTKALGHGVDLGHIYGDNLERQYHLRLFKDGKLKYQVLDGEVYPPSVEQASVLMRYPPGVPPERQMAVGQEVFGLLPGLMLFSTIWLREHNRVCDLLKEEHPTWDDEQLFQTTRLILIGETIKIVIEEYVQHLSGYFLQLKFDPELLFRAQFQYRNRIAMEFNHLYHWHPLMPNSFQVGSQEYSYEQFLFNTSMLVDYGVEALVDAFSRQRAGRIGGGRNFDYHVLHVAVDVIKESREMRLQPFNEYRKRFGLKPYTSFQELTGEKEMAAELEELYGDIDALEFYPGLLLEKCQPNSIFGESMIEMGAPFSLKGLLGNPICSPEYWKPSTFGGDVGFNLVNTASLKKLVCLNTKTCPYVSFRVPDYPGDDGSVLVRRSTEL
# A-DA lipid probe targets in A549 cells (Homo sapiens, UniProt P07093), sequence (P07093 20-398): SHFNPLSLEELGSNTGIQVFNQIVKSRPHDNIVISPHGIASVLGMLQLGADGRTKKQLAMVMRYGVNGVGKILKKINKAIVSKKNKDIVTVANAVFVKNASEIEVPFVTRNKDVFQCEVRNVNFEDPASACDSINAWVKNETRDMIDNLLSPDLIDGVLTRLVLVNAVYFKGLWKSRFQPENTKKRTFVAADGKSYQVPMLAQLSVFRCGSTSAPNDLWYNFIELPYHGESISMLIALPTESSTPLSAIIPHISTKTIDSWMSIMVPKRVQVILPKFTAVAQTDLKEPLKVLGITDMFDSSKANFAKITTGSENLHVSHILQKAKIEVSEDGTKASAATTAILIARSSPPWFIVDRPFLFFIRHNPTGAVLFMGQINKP
smiles,measurement,setting,value
CC(C(=O)O)c1ccc(-c2ccccc2)c(F)c1 (racemic) [(±)-flurbiprofen],competition of A-DA labeling of PTGS1,[1],competitively blocked
"CS(=O)(=O)c1ccc(C2=C(c3ccccc3)C(=O)OC2)cc1 [rofecoxib, reference compound]",A-DA labeling of AKR1B8,[2],reductions
same,conversion of exogenous AEA to PGF2α-EA,[3],blocked
same,"SILAC ratio, A-DA competition",[4],1.1
same,competition of A-DA labeling of PTGS2,[5],disrupted
same,"SILAC ratio, A-DA competition",[6],1.2
"C#CCCCC1(CC/C=C\C/C=C\C/C=C\CCCC(=O)O)N=N1 [AA-DA, (5Z,8Z,11Z)-14-(3-(pent-4-yn-1-yl)-3H-diazirin-3-yl)tetradeca-5,8,11-trienoic acid]",protein labeling profile (membrane vs soluble),[7],almost exclusive labeling of membrane proteins
"C#CCCCCOC(=O)CC[C@@H](C)[C@H]1CCC2C3CC4(N=N4)[C@H]4C[C@@H](O)CC[C@]4(C)C3CC[C@@]21C (stereo partly drawn) [trans-sterol probe, (4R)-hex-5-yn-1-yl 4-((3S,5S,10R,13R,17R)-3-hydroxy-10,13-dimethyl-1,2,3,4,5,7,8,9,10,11,12,13,14,15,16,17-hexadecahydrospiro[cyclopenta[a]phenanthrene-6,3′-diazirin]-17-yl)pentanoate]",overall protein-labeling profile by gel,[8],stronger overall protein-labeling profiles
same,mean labeling intensity ratio trans/epi,[9]; standard deviation 1.2,2.1
same,mean labeling intensity ratio trans/cis,[9]; standard deviation=0.57,0.9
